Tested on: Rattus norvegicus
Assay: Antihyperglycemic activity in normal albino rat sucrose-loaded model assessed as inhibition of postprandial rise in blood glucose level at 100 mg/kg, po pretreated 30 mins before sucrose challenge measured for 2 hrs during oral glucose tolerance test
Type: functional
Design: scale not given: the % may be the effect or the level left

Structure (SMILES)	Activity
O=C(NCC1SC(=O)NC1=O)NS(=O)(=O)c1ccc(F)cc1 (centres undefined)	10.7%
O=C(NCC1SC(=O)NC1=O)NS(=O)(=O)c1ccc(Cl)cc1 (centres undefined)	17.2%
O=C(NCC1SC(=O)NC1=O)NS(=O)(=O)c1ccc(Br)cc1 (centres undefined)	9.44%
O=C(NCC1SC(=O)NC1=O)NS(=O)(=O)c1ccc(Cl)cc1Cl (centres undefined)	14.3%
O=C(NCC1SC(=O)NC1=O)NS(=O)(=O)c1ccccc1 (centres undefined)	15.8%
Cc1ccc(S(=O)(=O)NC(=O)NCC2SC(=O)NC2=O)cc1 (centres undefined)	11.5%
CN(C)C(=N)NC(=N)N [METFORMIN]	27%
O=C(NCC1SC(=O)NC1=O)NS(=O)(=O)c1cc(Cl)ccc1Cl (centres undefined)	16.5%
O=C(NCC1SC(=O)NC1=O)NS(=O)(=O)c1ccc(Br)cc1Br (centres undefined)	8.66%
